Columns and labels:
[1] = test system: HEK293 cells; experiment: Protection against thapsigargin (TG)-induced cell death, HEK293; type: cell-based, human; conditions: compound 20 μM; thapsigargin 15 μM; 24 hrs
Outline: (§1)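 Cells pretreated with 20 μM compound for 2 h, then thapsigargin (15 μM HEK293, 1 μM N2a) for 24 h to induce ER stress. Viability by AlamarBlue fluorescence at 2 h as % RFU of control, binned A–D by % cell rescue.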

[2] = test system: N2a cells; experiment: Protection against thapsigargin (TG)-induced cell death, N2a; type: cell-based, mouse; conditions: compound 20 μM; thapsigargin 1 μM; 24 hrs
Outline: as §1

[3] = test system: N2a cells; experiment: Protection against hydrogen peroxide-induced cell death, N2a; type: cell-based, mouse; conditions: compound 40 μM; hydrogen peroxide 200 μM
Outline: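 N2a cells were pretreated 2 h with compound at 40 μM, then exposed to 200 μM H2O2 for 40 min. AlamarBlue (10% v/v) was added and fluorescence read 2 h later. Viability expressed as % RFU of control, reported as % cell rescue.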

[4] = test system: Ca^2+-ATPase; experiment: Ca2+-ATPase assay, microsomal preparations from HEK 293 cells; type: biochemical, human
Procedure: A Ca^2+-ATPase assay was performed using microsomal preparations from HEK 293 cells at a series of calcium concentrations corresponding to the physiological range, relative to controls. The ATP hydrolysis rate was measured over a range of calcium concentrations in the presence of test compounds using an NADH-linked, enzyme-coupled ATPase assay adapted for 96-well microplates, with Vmax determined by fitting the ATPase calcium-dependence to the Hill function. […] CaCl2 was added to set free [Ca^2+] to the specific values.

[5] = test system: ob/ob mice; experiment: Effect on the level of blood glucose in ob/ob mice; type: in vivo, mouse; conditions: for blood glucose: 10 or 50 mg/kg i.p. once a day for 5 days, as early as day 2; for glucose level after the last injection: for over a week after the last injection
Procedure: Fasting glucose was measured at baseline and 10 hours after the administration of the test compound. Glucose levels were measured in blood samples drawn from the tail vein using the OneTouch Ultra 2 Meter (LifeScan, Inc.).

[6] = test system: human islet microtissues; experiment: Protection of human pancreatic islets under cytokine stress; type: cell-based; conditions: 168 h, compound 5 μM, cytokine cocktail IL1-β, IFN-γ, TNF-α, 7 days, read-out: increase in viability over baseline (total ATP content)
Procedure: Human pancreatic islet microtissues treated with cytokines were used to model the conditions of Type 1 Diabetes in vitro. This study tested the effects of compounds on […] viability in human islets under cytokine stress. The model consisted of human islet microtissues from an HLA-A2 positive donor grown and separated in a 96-well plate (1 microtissue per well). The microtissues were treated for 7 days with a cocktail of cytokines (IL1-β 5 ng/mL, IFN-γ 25 ng/mL, TNF-α 25 ng/mL) and compound (5 μM) or vehicle. There were 6 microtissues treated per compound or vehicle. At day 7, the total ATP content was measured using CellTiter-Glo (Promega).

[7] = test system: livers of ob/ob mice; experiment: Reduction of ER stress markers in liver of ob/ob mice (western blot); type: in vivo, mouse; conditions: 50 mg/kg
Procedure: Proteins were analyzed by western blot and quantified. Bands were normalized to GAPDH and expressed as 100% of ob/ob+vehicle (ob). Liver tissues were homogenized with a bench-top homogenizer in an ice-cold tissue lysis buffer. The homogenized samples were centrifuged at 8,000×g for 20 min at 4° C. The lipid layer was removed and the supernatant was transferred into Eppendorf tubes. After centrifuging at 16,000×g for 60 min at 4° C., the supernatants were normalized to the same concentration and boiled at 100° C. in 1× Laemmli buffer for 5 min. The lysate was cooled to room temperature before loading for Western blot analysis. Protein lysate was resolved on SDS polyacrylamide gel and transferred onto PVDF membrane at a voltage of 100 V for 2 hrs at 4° C. The membrane was blocked in 10% blocking reagent and incubated overnight with a primary antibody in Tris-buffered saline solution/Tween (TBST)/10% blocking reagent at 4° C. After incubation, the membrane was washed three times in TBST for 20 min and incubated at room temperature with a secondary antibody in TBST/10% blocking reagent for 1 hr. The membrane was washed three times for 20 min and developed using a chemiluminescence assay system. To strip a membrane for another primary antibody, the membrane was agitated at 50° C. for 20 min in a box with stripping buffer (2% SDS and 100 mM 2-mercaptoethanol in TBS, pH 7.5). […]

Row | Compound | HEK293 Cells (TG-induced) cell rescue [1] | N2a Cells (TG-induced) cell rescue [2] | N2a Cells (H2O2-induced) cell rescue [3] | increase in baseline ATPase activity [4] | blood glucose [5] | glucose level after the last injection [5] | viability at 5 µM [6] [%] | phosphorylation of PERK and elF2α [7]
1 | Cc1ccc2cccc(NC(=O)c3ccc(OC(C)C)cc3)c2n1 [Compound A12, 4-Isopropoxy-N-(2-methylquinolin-8-yl)benzamide] | A (A represents a value greater than 50% cell rescue) | B (B represents a value between 10% to 50% cell rescue) | B (B represents a value between 10% to 50% cell rescue) | 10-15% | significantly lowered | identical to lean mice | 20 to 50 | significantly reduced
2 | Cc1ccc2cccc(NC(=O)c3ccc(N(C)C)cc3)c2n1 [Compound C18, 4-N,N-Dimethylamino-N-(2-methylquinolin-8-yl)benzamide] | A (A represents a value greater than 50% cell rescue) | A (A represents a value greater than 50% cell rescue) | B (B represents a value between 10% to 50% cell rescue) | greater than 15% | significantly lowered | identical to lean mice | > 50 | significantly reduced

Source: patent publication US11890279B2, “Quinolines that modulate SERCA and their use for treating disease” (Neurodon Corporation, priority 2020, dated 2024)
